One data set has as its target human A1AR (Homo sapiens (Human), UniProt P30542). The data set is described as follows: Binding assay to the human A1AR ([3H]R-PIA). The settings on record: 1 h; 10 μM; [3H]R-PIA (2.0 nM), CHO cells; Table 2; read-out: hA1AR % displ. at 10 μM. On the procedure: (§1) CHO (Chinese hamster ovary) cells expressing the recombinant human ARs (HEK-293 cells were used for the human A2AAR) were cultured in DMEM and F12 (1:1) supplemented with 10% fetal bovine serum, 100 units/ml penicillin, […] streptomycin and 2 μmol/ml glutamine. Cells were harvested by trypsinization. After homogenization and suspension, cells were centrifuged at 500 g for 10 min, and the pellet was re-suspended in 50 mM Tris.HCl buffer (pH 7.4) containing 10 mM MgCl2. The suspension was homogenized with an electric homogenizer for 10 sec, and was then re-centrifuged at 20,000 g for 20 min at 4° C. The resultant pellets were resuspended in buffer in the presence of 3 Units/mL adenosine deaminase, and the suspension was stored at −80° C. until the binding experiments. The protein concentration was measured using the Bradford assay.
(§2) For binding to the human A1AR, [^3H]R-PIA (2 nM) was incubated with membranes (40 μg/tube) from CHO cells stably expressing the human A1AR at 25° C. for 60 min in 50 mM Tris.HCl buffer (pH 7.4; MgCl2, 10 mM) in a total assay volume of 200 μL. Nonspecific binding was determined using 10 μM of N^6-cyclopentyladenosine. For human A2A AR binding, membranes (20 μg/tube) from HEK-293 cells stably expressing the human A2A AR were incubated with 15 nM [^3H]CGS21680 at 25° C. for 60 min in 200 μL of 50 mM Tris.HCl, pH 7.4, containing 10 mM MgCl2. N-5′-ethyluronamidoadenosine (10 μM) was used to define nonspecific binding. Reaction was terminated by filtration with GF/B filters.

A further data set concerns the target hA2BAR (Homo sapiens (Human), UniProt P29275). The data set is described as follows: Effect on NECA-induced cyclic AMP accumulation at A2B receptor. Also: NECA (150 nM)-induced cyclic AMP accumulation. It is filed as cell-based. The settings on record: read-out: hA2BAR % inhib. at 10 μM.
For another data set, the target named is human A3AR (Homo sapiens (Human), UniProt P0DMS8). The experiment in a line: Competitive binding assay to the human A3AR ([125I]I-AB-MECA). The settings on record: for inhibition at 10 µM: 1 h, [125I]I-AB-MECA (0.5 nM), CHO cells, Table 2, read-out: hA3AR % displ. at 10 μM. On the procedure: as §1
Each tube in the competitive binding assay contained 100 μl membrane suspension (20 μg protein), 50 μl [^125I]-AB-MECA (0.5 nM), and 50 μl of increasing concentrations of the test ligands in Tris.HCl buffer (50 mM, pH 8.0) containing 10 mM MgCl2, 1 mM EDTA. Nonspecific binding was determined using 10 μM of 5′-N-ethylcarboxamidoadenosine in the buffer. The mixtures were incubated at 25° C. for 60 min. Binding reactions were terminated by filtration through Whatman GF/B filters under reduced pressure using a MT-24 cell harvester (Brandell, Gaithersburgh, Md., USA). Filters were washed three times with 9 mL ice-cold buffer. Radioactivity was determined in a Beckman 5500B γ-counter.

The target of a further data set is human A2A AR (Homo sapiens (Human), UniProt P29274). The data set is described as follows: Binding assay to the human A2A AR ([3H]CGS21680). The note with it: 10 μM; [3H]CGS 21680 (15 nM), HEK293 cells; Table 2. On the procedure:
as §1, §2

The target of data set [1] is T1, human A3ARs (Homo sapiens (Human), UniProt P0DMS8). The experiment in a line: Dissociation kinetics of [125I]I-AB-MECA from human A3ARs. The class given is binding. The settings on record: 0.5 h, % decrease of dissociation at 30 min, residual binding of [125I]AB-MECA after 30 min = 100%, Table 2, read-out: hA3AR Ag. Dissociation at 10 μM. How it is done: The dissociation of [^125I]I-AB-MECA was measured as follows. Membranes (20 μg) were preincubated at 25° C. with 0.5 nM [^125I]I-AB-MECA, in a total volume of 100 μl of Tris-HCl buffer (50 mM, pH 8.0) containing 10 mM MgCl2, and 1 mM EDTA for 60 min. The dissociation was then initiated by the addition of 3 μM Cl-IB-MECA with or without allosteric modulators. The time course of dissociation of total binding was measured by rapid filtration at appropriate time intervals. Nonspecific binding was measured after 60-min incubation in the presence of 3 μM Cl-IB-MECA. Further assay was as described above.

Data set [2] concerns the target T1, human A3ARs. The data set is described as follows: Cyclic AMP accumulation assay, efficacy at hA3AR. It is filed as cell-based. The settings on record: compared to maximal effect by 2-Cl-IB-MECA alone (control = 100%). On the procedure: Intracellular cyclic AMP levels were measured with a competitive protein binding method (Nordstedt and Fredholm, 1990). CHO cells that expressed recombinant human A3ARs were harvested by trypsinization. After centrifugation and resuspension in medium, cells were plated in 24-well plates in 0.5 ml medium. After 24 hr, the medium was removed and cells were washed three times with 1 ml DMEM, containing 50 mM HEPES, pH 7.4. Cells were then treated with agonists and/or test compounds in the presence of rolipram (10 μM) and adenosine deaminase (3 units/ml). After 45 min forskolin (10 μM) was added to the medium, and incubation was continued an additional 15 min. The reaction was terminated by removing the supernatant, and cells were lysed upon the addition of 200 μL of 0.1 M ice-cold HCl. The cell lysate was resuspended and stored at −20° C. For determination of cyclic AMP production, protein kinase A (PKA) was incubated with [^3H]cyclic AMP (2 nM) in K2HPO4/EDTA buffer (K2HPO4, 150 mM; EDTA, 10 mM), 20 μL of the cell lysate, and 30 μL 0.1 M HCl or 50 μL of cyclic AMP solution (0-16 pmol/200 μL for standard curve). Bound radioactivity was separated by rapid filtration through Whatman GF/C filters and washed once with cold buffer. Bound radioactivity was measured by liquid scintillation spectrometry.

The term melting point denotes the temperature, or range, at which the solid turns liquid.

Sequence of human A1AR (P30542 whole entry): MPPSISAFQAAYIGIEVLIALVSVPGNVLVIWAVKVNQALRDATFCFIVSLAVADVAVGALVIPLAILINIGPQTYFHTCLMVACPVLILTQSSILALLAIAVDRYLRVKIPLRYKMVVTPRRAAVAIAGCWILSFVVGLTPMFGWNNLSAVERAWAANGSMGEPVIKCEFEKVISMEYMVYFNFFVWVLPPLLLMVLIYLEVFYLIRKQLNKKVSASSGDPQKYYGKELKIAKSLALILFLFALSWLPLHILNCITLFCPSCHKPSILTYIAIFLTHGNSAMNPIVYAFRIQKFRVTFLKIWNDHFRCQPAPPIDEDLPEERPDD
T1 sequence (P0DMS8 whole entry): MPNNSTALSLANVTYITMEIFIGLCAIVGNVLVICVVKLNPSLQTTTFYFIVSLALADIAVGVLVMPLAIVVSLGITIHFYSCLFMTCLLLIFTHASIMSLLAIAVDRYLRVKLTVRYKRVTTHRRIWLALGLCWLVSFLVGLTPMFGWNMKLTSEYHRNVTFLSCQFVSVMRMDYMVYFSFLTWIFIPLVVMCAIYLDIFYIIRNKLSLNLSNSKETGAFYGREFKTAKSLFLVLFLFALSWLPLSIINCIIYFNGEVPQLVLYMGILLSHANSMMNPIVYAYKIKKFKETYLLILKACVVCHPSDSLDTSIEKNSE
Sequence of human A3AR (P0DMS8 whole entry): as above
Sequence of human A2A AR (P29274 whole entry): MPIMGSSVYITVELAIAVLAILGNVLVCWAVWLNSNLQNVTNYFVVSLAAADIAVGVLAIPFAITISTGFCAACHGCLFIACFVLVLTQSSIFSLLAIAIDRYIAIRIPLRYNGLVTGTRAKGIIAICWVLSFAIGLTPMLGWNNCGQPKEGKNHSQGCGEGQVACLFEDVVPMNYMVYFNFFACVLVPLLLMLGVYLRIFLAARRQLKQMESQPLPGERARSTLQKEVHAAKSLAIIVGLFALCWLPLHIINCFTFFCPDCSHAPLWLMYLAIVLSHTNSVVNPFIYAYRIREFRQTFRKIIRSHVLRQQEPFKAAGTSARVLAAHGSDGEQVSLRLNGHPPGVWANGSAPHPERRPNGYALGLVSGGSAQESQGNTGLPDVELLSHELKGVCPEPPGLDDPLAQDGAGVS
Sequence of hA2BAR (P29275 whole entry): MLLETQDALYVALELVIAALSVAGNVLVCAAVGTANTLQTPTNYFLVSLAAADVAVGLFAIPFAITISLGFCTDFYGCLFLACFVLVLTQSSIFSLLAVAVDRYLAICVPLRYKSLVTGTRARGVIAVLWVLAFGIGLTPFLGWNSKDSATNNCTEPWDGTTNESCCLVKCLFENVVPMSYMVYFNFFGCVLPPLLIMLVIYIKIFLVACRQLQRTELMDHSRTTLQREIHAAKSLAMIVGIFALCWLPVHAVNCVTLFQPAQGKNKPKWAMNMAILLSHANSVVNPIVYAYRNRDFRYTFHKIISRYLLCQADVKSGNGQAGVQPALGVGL

Compound `COc1ccc(CNc2nc3ccccc3c3[nH]c(C4CCCC4)nc23)cc1` [Compound 38, N-(4-Methoxy-benzyl)-2-cyclopentyl-1H-imidazo[4,5-c]quinolin-4-amine] showed a melting point of 245 to 247 °C. Moreover, the inhibition at 10 µM at human A1AR was found to be 59%. The inhibition at 10 µM at hA2BAR is 0.3%. Besides, the inhibition at 10 µM on human A3AR stood at 80%. In addition, the “hA2AAR % displ. at 10 μM” value at human A2A AR came to 60%. Also, the activity at 10 µM at human A3ARs [1] was found to be 101 ± 13%. At human A3ARs [2], the “% Increase of efficacy at hA3AR at 10 μM” value turned out to be 109 ± 3%.
Take `c1ccc2c(c1)nc(Nc1ccc3cc[nH]c3c1)c1nc(C3CCCC3)[nH]c12` [Compound 39, N-(1H-Indol-6-yl)-2-cyclopentyl-1H-imidazo[4,5-c]quinolin-4-amine]: the melting point is 260 to 261 °C. For the same compound, on human A1AR, the inhibition at 10 µM was 70%. For the same compound, the inhibition at 10 µM at hA2BAR is 10.1%. Besides, at human A3AR, the inhibition at 10 µM amounted to 89%. Moreover, at human A2A AR, the “hA2AAR % displ. at 10 μM” value is 74%. For the same compound, the activity at 10 µM at human A3ARs [1] stood at 126 ± 9%. Also, at human A3ARs [2], the “% Increase of efficacy at hA3AR at 10 μM” value is 125 ± 2%.
`c1ccc(CCNc2nc3ccccc3c3[nH]c(C4CCCC4)nc23)cc1` [Compound 41, N-(Phenylethyl)-2-cyclopentyl-1H-imidazo[4,5-c]quinolin-4-amine] had a melting point of 95 to 97 °C. Further, the inhibition at 10 µM at human A1AR came out at 52%. In addition, on hA2BAR, the inhibition at 10 µM is -11.6%. Besides, at human A3AR, the inhibition at 10 µM came out at 84%. In addition, the “hA2AAR % displ. at 10 μM” value on human A2A AR worked out at 91%. Also, on human A3ARs [1], the activity at 10 µM came to 154 ± 7%. Further, the “% Increase of efficacy at hA3AR at 10 μM” value at human A3ARs [2] is reported as 137 ± 4%.
`Clc1ccc(Nc2nc3ccccc3c3[nH]c(C4CCCCCC4)nc23)cc1Cl` [Compound 42, N-(3,4-Dichloro-phenyl)-2-cycloheptyl-1H-imidazo[4,5-c]quinolin-4-amine]: the melting point lay within 236 to 238 °C. Besides, the inhibition at 10 µM at human A1AR was -4%. For the same compound, the inhibition at 10 µM on hA2BAR was -7.3%. At human A3AR, the inhibition at 10 µM was 68%. The “affinity to orthosteric versus allosteric binding sites (selective affinity)” value at human A3AR (orthosteric sites of A1, A2A, A2B, A3 receptors vs allosteric site of A3 adenosine receptor) was “selective affinity”. The “hA2AAR % displ. at 10 μM” value on human A2A AR was −2%. Further, the activity at 10 µM on human A3ARs [1] was 130 ± 2%. Also, the “% Increase of efficacy at hA3AR at 10 μM” value on human A3ARs [2] worked out at 115 ± 7%.
`Clc1ccc(Nc2nc3ccccc3c3[nH]c(-c4ccco4)nc23)cc1Cl` [Compound 43] came in with a melting point of 135 to 138 °C. Also, the inhibition at 10 µM on human A1AR is -4%. Further, the inhibition at 10 µM at hA2BAR came to 9%. In addition, on human A3AR, the inhibition at 10 µM turned out to be 78%. Besides, the “hA2AAR % displ. at 10 μM” value at human A2A AR came to 70%. Besides, on human A3ARs [1], the activity at 10 µM came to 98 ± 3%. Further, the “% Increase of efficacy at hA3AR at 10 μM” value on human A3ARs [2] is listed as 95 ± 4%.
In the case of `Clc1ccc(Nc2nc3ccccc3c3[nH]cnc23)cc1Cl` [Compound 46, N-(3,4-Dichloro-phenyl)-2-1H-imidazo[4,5-c]quinolin-4-amine], the melting point lay in the range of 167 to 172 °C. Besides, the inhibition at 10 µM on human A1AR turned out to be 1.8%. Also, the inhibition at 10 µM on hA2BAR came out at 10.2%. Also, the inhibition at 10 µM on human A3AR was 39%. Moreover, the “hA2AAR % displ. at 10 μM” value at human A2A AR was −0.8%. The activity at 10 µM on human A3ARs [1] came out at 91 ± 7%. Also, the “% Increase of efficacy at hA3AR at 10 μM” value on human A3ARs [2] is recorded as 92 ± 4%.
Compound `CCCCCc1nc2c(Nc3ccc(Cl)c(Cl)c3)nc3ccccc3c2[nH]1` [Compound 47, N-(3,4-Dichloro-phenyl)-2-pentyl-1H-imidazo[4,5-c]quinolin-4-amine] came in with a melting point of 195 to 200 °C. Moreover, on human A1AR, the inhibition at 10 µM was 43.9%. Besides, at hA2BAR, the inhibition at 10 µM is -9.3%. Besides, the inhibition at 10 µM at human A3AR turned out to be 84%. On human A2A AR, the “hA2AAR % displ. at 10 μM” value was −1%. The activity at 10 µM at human A3ARs [1] was 116 ± 5%. Also, the “% Increase of efficacy at hA3AR at 10 μM” value on human A3ARs [2] came to 102 ± 5%.

(Values after patent publication US9326978B2, “A3 adenosine receptor allosteric modulators” (The United States of America, Represented by the Secretary, …, priority 2006, dated 2016).)
